Blank lines part the entries; values can stand above or below the compound they belong to.
What was measured:
[1] = test system: CHO cell line producing mAb3; assay: Fed-batch cell performance (viable cell density), clone 3 producing mAb3; type: cell-based, Chinese hamster; conditions: mAb3, feed with 400 μM additive
Description: Four different clones of Chinese hamster ovary (CHO) cells expressing three different monoclonal antibodies (mAb) and a fusion protein were tested. Cells were cultivated in spin tubes between 14 and 20 days at 37° C., 5% CO2, and 80% humidity. As starting cell density, 3×10^5 cells/mL in 30 mL Cellvento®4CHO media (pH 7.0±0.1) was used for clone 1 and 2 producing mAb1 and mAb2, respectively (Cellvento® Platform). Cells were cultivated at an agitation rate of 320 rpm and were fed on day 3, 5, 10, 12 and 14 with 3% volume of Cellvento® 4Feed (v/v) and on day 7 with 6% (v/v) of the feed. Clone 3 and 4 producing mAb3 and a fusion protein were inoculated at the same cell density in 30 mL Ex-Cell® Advanced Media (pH 7.2±0.1) while agitation was set to 230 rpm. Clones 3 and 4 were fed with 5% Ex-Cell® Advanced Feed (v/v) on day 3, 5, 7, 10, 12, 14 and 17. […]
The glucose level was maintained above 4 g/L by adding a specific amount of a 400 g/L glucose stock solution on demand to up to 6 g/L during the week and up to 13 g/L over the weekend. Glucose and titer were detected in the supernatant with the bioprocess analyzer CEDEX Bio HT (Roche, Mannheim, Germany) based on spectrophotometric and turbidometric methods. The viable cell density (VCD) and viability were evaluated with a Vi-CELL™ XR 2.04 cell counter (Beckman Coulter, Fullerton, Calif., USA). […]

[2] = test system: CHO cell line producing mAb1; assay: Glycosylation profile (UPLC-MS of released glycans) of mAb1 from fed-batch; type: cell-based, Chinese hamster; conditions: for fucosylation level / incorporation of the fucose-analogue: mean of day 7, 10 and 12; for reduction of the fucosylation compared to the control: mAb1, same concentration of both additives
Description: (§1) Glycosylation patterns were analyzed by ultra-performance liquid chromatography coupled to a mass spectrometer (UPLC-MS). The purified antibody was denaturated and the glycans were released from the antibody by digestion with peptide N-glycosidase F (PNGase F) followed by labeling the glycans with the GlycoWorks™ RapiFluor-MS™ N-Glycan Kit according to the manufacturer protocol. For the analysis, an UPLC glycan column (2.1×150 mm) that separated the glycans according to their […] was used. The chromatography was performed at 45° C. using 50 mM ammonium formate (A), pH 4.4 solution and an acetonitrile (B) gradient. In detail, at the beginning the ratio of A:B was 20:80 (0 min) and changed to 27:73 at 3 min and 37:63 at 35 min at a flow rate of 0.5 ml/min. From 36.5 min to 39.5 min only A was used as mobile phase and the flow rate was reduced to 0.2 ml/min. Subsequently, the ratio was changed to 20% A:80% B and the flowrate was increased to 0.5 ml/min at 43.1 min until the end of the process at 55 min. The detection was performed by a fluorescence detector with an excitation wavelength of 265 nm and an emission wavelength of 425 nm. The identification of the glycan structures was performed by MS using positive electro spray ionization (ESI), which was calibrated every 30 s with a standard.
(§2) Four different clones of Chinese hamster ovary (CHO) cells expressing three different monoclonal antibodies (mAb) and a fusion protein were tested. Cells were cultivated in spin tubes between 14 and 20 days at 37° C., 5% CO2, and 80% humidity. As starting cell density, 3×10^5 cells/mL in 30 mL Cellvento®4CHO media (pH 7.0±0.1) was used for clone 1 and 2 producing mAb1 and mAb2, respectively (Cellvento® Platform). Cells were cultivated at an agitation of 320 rpm and were fed on day 3, 5, 10, 12 and 14 with 3% volume of Cellvento® 4Feed (v/v) and on day 7 with 6% (v/v) of the feed. Clone 3 and 4 producing mAb3 and a fusion protein were inoculated at the same cell density in 30 mL Ex-Cell® Advanced Media (pH 7.2±0.1) while agitation was set to 230 rpm (Ex-Cell® Platform). Clones 3 and 4 were fed with […] Advanced Feed (v/v) on day 3, 5, 7, 10, 12, 14 and 17. […] The pH of all Cellvento® feeds was adjusted to 7.0±0.1 and Ex-Cell® Feeds were adjusted to 8.5±0.1. The glucose level was maintained above 4 g/L by adding a specific amount of a 400 g/L glucose stock solution on demand to up to 6 g/L during the week and up to 13 g/L over the weekend. Glucose and titer were detected in the supernatant with the bioprocess analyzer CEDEX Bio HT (Roche, Mannheim, Germany).
(§3) To investigate the glycosylation profile during the fed-batch experiment samples were centrifugated and antibodies and Fc-fusion proteins were purified from the cell culture supernatant using protein A PhyTips® (PhyNexus Inc, San Jose, Calif.). Glycosylation patterns were analyzed as described by ultra-performance liquid chromatography coupled to a mass spectrometer (UPLC-MS) using the GlycoWorks™ RapiFluor-MS™ N-Glycan Kit.
(§4) Glycosylation profile on day 12 was visualized since harvest of recombinant produced proteins on day 12 is common. Quantification of the glycans was obtained using the relative peak area of the fluorescence signal. Almost all peaks were assigned to glycan structures according to their mass. Unknown glycan structures and signals without mass detection were summarized as unknown species (not shown). Four different clones of Chinese hamster ovary (CHO) cells expressing three different monoclonal antibodies (mAb) and a fusion protein were tested. […] The known positive control achieved a […] level on day 12 by increasing the afucosylation to 78%. The same amount of afucosylation compared to the known fucose-analogue acetylated 2F-Fucose was only achieved by clone 3 expressing mAb3 leading to about […] on day 12 (FIG. 8 C). […]

[3] = test system: CHO cell line producing mAb2; assay: Glycosylation profile (UPLC-MS of released glycans) of mAb2 from fed-batch; type: cell-based, Chinese hamster; conditions: mAb2, 400 μM additive, day 12
Description: as §1, §2, §3
Glycosylation profile on day 12 was visualized since harvest of recombinant produced proteins on day 12 is common. Quantification of the glycans was obtained using the relative peak area of the fluorescence signal. Almost all peaks were assigned to glycan structures according to their mass. Unknown glycan structures and signals without mass detection were summarized as unknown species (not shown). […]

[4] = test system: CHO cell line producing a fusion protein; assay: Glycosylation profile (UPLC-MS of released glycans) of fusion protein from fed-batch; type: cell-based, Chinese hamster; conditions: 400 μM additive, day 12
Description: as §1, §2, §3
Glycosylation profile on day 12 was visualized since harvest of recombinant produced proteins on day 12 is common. Quantification of the glycans was obtained using the relative peak area of the fluorescence signal. Almost all peaks were assigned to glycan structures according to their mass. Unknown glycan structures and signals without mass detection were summarized as unknown species (not shown). Four different clones of Chinese hamster ovary (CHO) cells expressing three different monoclonal antibodies (mAb) and a fusion protein were tested. […] The known positive control achieved a 14% fucosylation level on day 12 by increasing the afucosylation to 78%. The same amount of afucosylation compared to the known fucose-analogue acetylated 2F-Fucose was only achieved by clone 3 expressing mAb3 leading to about 34% afucosylation on day 12 (FIG. 8 C).

[5] = test system: CHO cell line producing mAb3; assay: Glycosylation profile (UPLC-MS of released glycans) of mAb3 from fed-batch; type: cell-based, Chinese hamster; conditions: mAb3, 400 μM additive
Description: as §1, §2, §3, §4

FcγRIIIa V176 = assay: Surface plasmon resonance (Biacore) binding of mAb3 from treated cultures to FcγRIIIa; conditions: for Fold change (affinity vs control): mAb3, 400 μM additive; for Kd: mAb3 from culture fed with 400 μM additive
Description: Binding of samples after 5-ThioFuc treatment was investigated by surface plasmon resonance technology using a Biacore T200 system (GE Healthcare, Uppsala, Sweden). The analysis temperature was set to 25° C. and sample compartment temperature to 15° C. […] The anti-His antibody was further used to capture His-tagged FcγRIIIa V176 ([…]) from AcroBiosystems (Newark, Del., USA).
Binding was recorded continuously, while unspecific binding and injection artefacts were subtracted automatically. Single-cycle kinetics were used with a dissociation time of 600 s at a flow rate of 30 μL/min. Data collection rate was performed at 10 Hz. Following each experiment, both flow cells were regenerated for 30 s with 10 mM glycine-HCl pH 1.5 according to kit instructions. Data of three technical and two biological replicates were fitted with a 1:1 binding model. The global dissociation constant KD was determined from the ratio of the kinetic rate constants for dissociation (kd) and association (ka) values. Data are presented in Table 1 as fold change compared to the control.

[6] = day 12, listed as acetylated 2F-Fucose

Compound: acetylated 5-Thio-L-Fucose
reduced VCD (area under the curve until day 17, compared to the control) [1]: ~24%
fucosylation level ([2]; mAb1, 200 μM additive): 46%
incorporation of the fucose-analogue ([2]; mAb1, 200 μM additive): 50%
core-fucosylated glycans ([2]; mAb1, 400 μM additive, day 12): about 26%
incorporation of fucose analogue (% of the glycans) ([2]; mAb1, 400 μM additive, day 12): about 70%
fucosylation level ([2]; mAb1, 400 μM additive): 16%
incorporation of the fucose-analogue ([2]; mAb1, 400 μM additive): 81%
fucosylation level ([2]; mAb1, 800 μM additive): 9%
incorporation of the fucose-analogue ([2]; mAb1, 800 μM additive): 87%
core-fucosylation [3]: 8%
afucosylation [4]: 52%
incorporation of fucose analogue (% of the glycans) [4]: 39%
reduction of core-fucosylation compared to the control [4]: about 63%

Fold change (affinity vs control) (FcγRIIIa V176; day 5): 1.3 fold
Fold change (affinity vs control) (FcγRIIIa V176; day 12): 3.6 fold
Fold change (affinity vs control) (FcγRIIIa V176; day 14): 4.4 fold
Kd (FcγRIIIa V176; day 5): 78 nM
Kd (FcγRIIIa V176; day 12): 34 nM
Kd (FcγRIIIa V176; day 14): 23 nM
Compound: CC(=O)OC1O[C@@H](C)[C@@H](OC(C)=O)[C@@H](OC(C)=O)[C@@H]1F (stereo partly shown) [2F-Peracetylfucose, reference compound]
afucosylation ([2]; mAb1, 400 μM additive, day 12): 60%
core-fucosylated glycans ([2]; mAb1, 400 μM additive, day 12): 36%
reduction of the fucosylation compared to the control ([2]; day 7): 11%
reduction of the fucosylation compared to the control ([2]; day 10): 50%
reduction of the fucosylation compared to the control ([2]; day 12): 58%
afucosylation [3]: 78%
core-fucosylation [3]: 14%
% Afucosylated ([5]; day 5): 14.9%
% fucose analogue (incorporated) ([5]; day 5): 0.3%
% Fucosylated ([5]; day 5, listed as 2F-PerAcFuc): 83.9%
% Fucosylated ([5]; day 5, listed as acetylated 2F-Fucose): about 84%
fucosylation level ([5]; day 7): about 78%
fucosylation level ([5]; day 10): ~72%
% fucose analogue (incorporated) ([5]; day 12): 0.2%
% Afucosylated ([5]; day 12, listed as 2F-PerAcFuc): 34.2%
% Fucosylated ([5]; day 12, listed as 2F-PerAcFuc): 64.8%
% Afucosylated [5, 6]: about 34%
% Fucosylated [5, 6]: 65%
% Afucosylated ([5]; day 14): 40.9%
% fucose analogue (incorporated) ([5]; day 14): 0.12%
% Fucosylated ([5]; day 14, listed as 2F-PerAcFuc): 57.4%
% Fucosylated ([5]; day 14, listed as acetylated 2F-Fucose): ~57%
afucosylation [4]: 82%
incorporation of fucose analogue (% of the glycans) [4]: without detectable incorporation
